Results published in ChEMBL document CHEMBL3885881, “DrugMatrix”.

Organism: Rattus norvegicus
Test: DrugMatrix - Regimen: Daily Repeat
Type: toxicity, organism-based, Sprague-Dawley
Design: regimen Daily Repeat, gender Male, age 6-8 weeks
Conditions: in vivo, po, route oral GAVAGE, vehicle 100 % SALINE; for ABSOLUTE BASOPHIL / ABSOLUTE EOSINOPHIL / ABSOLUTE LYMPHOCYTE / ABSOLUTE MONOCYTE / ABSOLUTE SEGMENTED NEUTROPHIL / BASOPHIL / EOSINOPHIL / ERYTHROCYTE COUNT / HEMATOCRIT / HEMOGLOBIN / LEUKOCYTE COUNT / LYMPHOCYTE / MEAN CORPUSCULAR HEMOGLOBIN / MEAN CORPUSCULAR HEMOGLOBIN CONCENTRATION / MEAN CORPUSCULAR VOLUME / MONOCYTE / NEUTROPHIL / NUCLEATED RED BLOOD CELLS / PLATELET COUNT: tissue Blood; for ALANINE AMINOTRANSFERASE / ALBUMIN / ALKALINE PHOSPHATASE / ASPARTATE AMINOTRANSFERASE / BLOOD UREA NITROGEN / CARBON DIOXIDE / CHLORIDE / CHOLESTEROL / CREATINE PHOSPHOKINASE / CREATININE / GLUCOSE / LACTATE DEHYDROGENASE / LIPASE / PHOSPHORUS / POTASSIUM / SODIUM / TOTAL BILIRUBIN / TOTAL PROTEIN / URIC ACID: tissue Plasma
[1] = 0 mg/kg, 72 h, dose level Control, time 3 day
[2] = 0 mg/kg, 120 h, dose level Control, time 5 day
[3] = 34 mg/kg, 72 h, dose level High, time 3 day
[4] = 34 mg/kg, 120 h, dose level High, time 5 day

In the case of `CCN(CC)N=O` [N-NITROSODIETHYLAMINE], the “ABSOLUTE BASOPHIL” value [1] is reported as 0 CELLS/uL, the “ABSOLUTE EOSINOPHIL” value [1] is reported as 0 CELLS/uL and the “ABSOLUTE LYMPHOCYTE” value [1] is reported as 8960.83 CELLS/uL. The “ABSOLUTE MONOCYTE” value [1] was 103.5 CELLS/uL, the “ABSOLUTE SEGMENTED NEUTROPHIL” value [1] was 635.67 CELLS/uL and the BASOPHIL [1] was 0%. For the same compound, the EOSINOPHIL [1] was 0%, the “ERYTHROCYTE COUNT” value [1] was 5.09 x10E6/uL and the HEMATOCRIT [1] was 31.8%. For the same compound, the HEMOGLOBIN [1] was 12.42 G/DL, the “LEUKOCYTE COUNT” value [1] was 9.7 x10E3/uL and the LYMPHOCYTE [1] was 92.33%. The “MEAN CORPUSCULAR HEMOGLOBIN” value [1] was 24.4 pg, the “MEAN CORPUSCULAR HEMOGLOBIN CONCENTRATION” value [1] was 39.07 G/DL and the “MEAN CORPUSCULAR VOLUME” value [1] was 62.47 fL. For the same compound, the MONOCYTE [1] was 1%, the NEUTROPHIL [1] was 6.67% and the “NUCLEATED RED BLOOD CELLS” value [1] was 0 /100WBC. The “PLATELET COUNT” value [1] was 466.5 x10E3/uL, the “ALANINE AMINOTRANSFERASE” value [1] was 83.33 u/L and the ALBUMIN [1] was 4.33 G/DL. The “ALKALINE PHOSPHATASE” value [1] was 340.5 u/L, the “ASPARTATE AMINOTRANSFERASE” value [1] was 189.83 u/L and the “BLOOD UREA NITROGEN” value [1] was 15.83 mg/dL. For the same compound, the “CARBON DIOXIDE” value [1] was 38 mmol/L, the CHLORIDE [1] was 96.83 MEQ/L and the CHOLESTEROL [1] was 72.5 mg/dL. For the same compound, the “CREATINE PHOSPHOKINASE” value [1] was 370.67 u/L, the CREATININE [1] was 0.28 mg/dL and the GLUCOSE [1] was 182.83 mg/dL. The “LACTATE DEHYDROGENASE” value [1] was 513.5 u/L, the LIPASE [1] was 9.83 u/L and the PHOSPHORUS [1] was 11.32 mg/dL. For the same compound, the POTASSIUM [1] was 6.32 MEQ/L, the SODIUM [1] was 145.12 MEQ/L and the “TOTAL BILIRUBIN” value [1] was 0.2 mg/dL. The “TOTAL PROTEIN” value [1] was 6.4 G/DL, the “URIC ACID” value [1] was 2.03 mg/dL and the “ABSOLUTE BASOPHIL” value [2] was 0 CELLS/uL. The “ABSOLUTE EOSINOPHIL” value [2] was 43.83 CELLS/uL, the “ABSOLUTE LYMPHOCYTE” value [2] was 7316.67 CELLS/uL and the “ABSOLUTE MONOCYTE” value [2] was 87.33 CELLS/uL. The “ABSOLUTE SEGMENTED NEUTROPHIL” value [2] was 418.83 CELLS/uL, the BASOPHIL [2] was 0% and the EOSINOPHIL [2] was 0.33%. For the same compound, the “ERYTHROCYTE COUNT” value [2] was 4.77 x10E6/uL, the HEMATOCRIT [2] was 29.93% and the HEMOGLOBIN [2] was 11.48 G/DL. For the same compound, the “LEUKOCYTE COUNT” value [2] was 7.87 x10E3/uL, the LYMPHOCYTE [2] was 93.5% and the “MEAN CORPUSCULAR HEMOGLOBIN” value [2] was 24.17 pg. For the same compound, the “MEAN CORPUSCULAR HEMOGLOBIN CONCENTRATION” value [2] was 38.57 G/DL, the “MEAN CORPUSCULAR VOLUME” value [2] was 62.68 fL and the MONOCYTE [2] was 1%. The NEUTROPHIL [2] was 5.17%, the “NUCLEATED RED BLOOD CELLS” value [2] was 0 /100WBC and the “PLATELET COUNT” value [2] was 377.67 x10E3/uL. For the same compound, the “ALANINE AMINOTRANSFERASE” value [2] was 89 u/L, the ALBUMIN [2] was 4.42 G/DL and the “ALKALINE PHOSPHATASE” value [2] was 275.17 u/L. The “ASPARTATE AMINOTRANSFERASE” value [2] was 204.17 u/L, the “BLOOD UREA NITROGEN” value [2] was 15.33 mg/dL and the “CARBON DIOXIDE” value [2] was 36.83 mmol/L. The CHLORIDE [2] was 94.67 MEQ/L, the CHOLESTEROL [2] was 92 mg/dL and the “CREATINE PHOSPHOKINASE” value [2] was 514.5 u/L. The CREATININE [2] was 0.24 mg/dL, the GLUCOSE [2] was 184.17 mg/dL and the “LACTATE DEHYDROGENASE” value [2] was 648.67 u/L. It also gave an LIPASE [2] of 10 u/L, a PHOSPHORUS [2] of 12.33 mg/dL and a POTASSIUM [2] of 6.51 MEQ/L. For the same compound, the SODIUM [2] was 144.63 MEQ/L, the “TOTAL BILIRUBIN” value [2] was 0.18 mg/dL and the “TOTAL PROTEIN” value [2] was 6.7 G/DL. For the same compound, the “URIC ACID” value [2] was 2.33 mg/dL, the “ABSOLUTE BASOPHIL” value [3] was 0 CELLS/uL and the “ABSOLUTE EOSINOPHIL” value [3] was 38.67 CELLS/uL. The “ABSOLUTE LYMPHOCYTE” value [3] was 8206.67 CELLS/uL, the “ABSOLUTE MONOCYTE” value [3] was 88.33 CELLS/uL and the “ABSOLUTE SEGMENTED NEUTROPHIL” value [3] was 499.67 CELLS/uL. The BASOPHIL [3] was 0%, the EOSINOPHIL [3] was 0.33% and the “ERYTHROCYTE COUNT” value [3] was 6.73 x10E6/uL. The HEMATOCRIT [3] was 41.13%, the HEMOGLOBIN [3] was 15.77 G/DL and the “LEUKOCYTE COUNT” value [3] was 8.83 x10E3/uL. The LYMPHOCYTE [3] was 93.33%, the “MEAN CORPUSCULAR HEMOGLOBIN” value [3] was 23.47 pg and the “MEAN CORPUSCULAR HEMOGLOBIN CONCENTRATION” value [3] was 38.37 G/DL. For the same compound, the “MEAN CORPUSCULAR VOLUME” value [3] was 61.23 fL, the MONOCYTE [3] was 1% and the NEUTROPHIL [3] was 5.33%. For the same compound, the “NUCLEATED RED BLOOD CELLS” value [3] was 0 /100WBC, the “PLATELET COUNT” value [3] was 912.67 x10E3/uL and the “ALANINE AMINOTRANSFERASE” value [3] was 112.33 u/L. The ALBUMIN [3] was 4.2 G/DL, the “ALKALINE PHOSPHATASE” value [3] was 292.67 u/L and the “ASPARTATE AMINOTRANSFERASE” value [3] was 218.67 u/L. The “BLOOD UREA NITROGEN” value [3] was 13 mg/dL, the “CARBON DIOXIDE” value [3] was 38.67 mmol/L and the CHLORIDE [3] was 96.33 MEQ/L. The CHOLESTEROL [3] was 79.33 mg/dL, the “CREATINE PHOSPHOKINASE” value [3] was 309.67 u/L and the CREATININE [3] was 0.53 mg/dL. For the same compound, the GLUCOSE [3] was 161.33 mg/dL, the “LACTATE DEHYDROGENASE” value [3] was 311 u/L and the LIPASE [3] was 9.67 u/L. The PHOSPHORUS [3] was 11.2 mg/dL, the POTASSIUM [3] was 6.34 MEQ/L and the SODIUM [3] was 146.93 MEQ/L. The “TOTAL BILIRUBIN” value [3] was 0.2 mg/dL, the “TOTAL PROTEIN” value [3] was 6.03 G/DL and the “URIC ACID” value [3] was 2.2 mg/dL. The “ABSOLUTE BASOPHIL” value [4] was 0 CELLS/uL, the “ABSOLUTE EOSINOPHIL” value [4] was 0 CELLS/uL and the “ABSOLUTE LYMPHOCYTE” value [4] was 7416.33 CELLS/uL. For the same compound, the “ABSOLUTE MONOCYTE” value [4] was 148.33 CELLS/uL, the “ABSOLUTE SEGMENTED NEUTROPHIL” value [4] was 435.33 CELLS/uL and the BASOPHIL [4] was 0%. The EOSINOPHIL [4] was 0%, the “ERYTHROCYTE COUNT” value [4] was 6.58 x10E6/uL and the HEMATOCRIT [4] was 41.63%. The HEMOGLOBIN [4] was 15.6 G/DL, the “LEUKOCYTE COUNT” value [4] was 8 x10E3/uL and the LYMPHOCYTE [4] was 94%. The “MEAN CORPUSCULAR HEMOGLOBIN” value [4] was 23.7 pg, the “MEAN CORPUSCULAR HEMOGLOBIN CONCENTRATION” value [4] was 37.47 G/DL and the “MEAN CORPUSCULAR VOLUME” value [4] was 63.27 fL. For the same compound, the MONOCYTE [4] was 1.67%, the NEUTROPHIL [4] was 4.33% and the “NUCLEATED RED BLOOD CELLS” value [4] was 0 /100WBC. The “PLATELET COUNT” value [4] was 607 x10E3/uL, the “ALANINE AMINOTRANSFERASE” value [4] was 90.67 u/L and the ALBUMIN [4] was 3.93 G/DL. For the same compound, the “ALKALINE PHOSPHATASE” value [4] was 310.33 u/L, the “ASPARTATE AMINOTRANSFERASE” value [4] was 148 u/L and the “BLOOD UREA NITROGEN” value [4] was 13 mg/dL. The “CARBON DIOXIDE” value [4] was 37 mmol/L, the CHLORIDE [4] was 95.67 MEQ/L and the CHOLESTEROL [4] was 85.67 mg/dL. The “CREATINE PHOSPHOKINASE” value [4] was 246 u/L, the CREATININE [4] was 0.16 mg/dL and the GLUCOSE [4] was 139.33 mg/dL. For the same compound, the “LACTATE DEHYDROGENASE” value [4] was 200 u/L, the LIPASE [4] was 13 u/L and the PHOSPHORUS [4] was 11.33 mg/dL. For the same compound, the POTASSIUM [4] was 6.73 MEQ/L, the SODIUM [4] was 144.83 MEQ/L and the “TOTAL BILIRUBIN” value [4] was 0.23 mg/dL. The “TOTAL PROTEIN” value [4] was 5.43 G/DL and the “URIC ACID” value [4] was 1.9 mg/dL.
